Reference: US7687512B2, “Use of pyridinyl-pyrimidinylamino-benzamide derivatives for the treatment of amyloid related disorders” (Novartis AG, priority 2003, dated 2010)

Columns and labels:
Abeta secretion = settings: HEK/APPswe cell cultures, at concentrations below 10 microM
Procedure: HEK/APPswe cells are plated in microtiter plates precoated with 10 μg/ml poly-D-lysine at 12,000 cells/well in 100 μl/well DMEM medium supplemented with 10% FCS, 0.25 mg/ml G418 sulfate, 1% penicillin streptomycin. The following day, supernatant is replaced with 90 μl/well of fresh medium and 10 μl/well of compound diluted in culture medium are added. Two types of control wells are used: cell culture medium without cells plus 10 μl/well of all compound dilutions (background signals) and cell culture medium from untreated cells (positive control). 24 hours later after compound addition, conditioned medium is collected and Aβ levels determined by a specific sandwich ELISA.
For the sandwich ELISA, the maxisorp microtiterplates are coated overnight at 4° C. with 100 μl/well of the monoclonal antibody 25H10 diluted 1:1000 in PB for Aβ40 detection or monoclonal antibody B10E7 diluted 1:2750 for detection of Aβ42. […] After 1 hour incubation at room temperature wells are washed as described above and alkaline phosphatase activity is determined by adding 100 μl/well of diethanolamine buffer, pH 9.8 (100 mM diethanolamine, 1 mM MgCl2, pH adjusted to 9.8 with 2 M HCl) containing the chemiluminescent CSPD substrate (25 mM stock solution diluted 1:416) and the enhancer Emerald II (diluted 1:10). […] Samples are measured in triplicate. […]

HEK/APPswe cells = settings: HEK/APPswe cell cultures, at concentrations below 10 microM
Procedure: To determine cytotoxicity, cells are tested by the MTS colorimetric kit performed essentially according to the manufacturer's specifications (Promega, #G5430X). After collecting the conditioned medium for the sandwich ELISA, the rest of the conditioned medium is removed completely and replaced with 100 μl/well culture medium containing one fifth of MTS solution prepared as recommended in the kit. After 3 hours incubation at 37° C., absorbance is read at an OD of 490 nm with a reference wavelength set to 630 nm. Values are given as % metabolic rate (n=6). The 0% value is calculated from wells which had no cells, 100% from wells with an untreated cell layer

Cc1cn(-c2cc(NC(=O)c3ccc(C)c(Nc4nccc(-c5cccnc5)n4)c3)cc(C(F)(F)F)c2)cn1 [Example 2, 4-Methyl-N-[3-(4-methyl-imidazol-1-yl)-5-trifluoromethyl-phenyl]-3-(4-pyridin-3-yl-pyrimidin-2-ylamino)-benzamide]
reduction of Abeta secretion in the medium (Abeta secretion): clear reduction
effect on cellular viability (HEK/APPswe cells): without having any effect
